Data reported in article PMC11993918, “Flipped binding modes for the same agonist in closely related neuropeptide-gated ion channels” (Biophysical Journal, 2025).
Several values for one entry are separate records, joined by “and”; a condition that tells them apart may be missing. Equal entries are not always repeated. Entries after “also recorded” stand apart in the source; their conditions may differ. Where two headings read alike, the source gives them in different places. No end group written: not given here.

Columns and labels:
[1] = target: Malacoceros fuliginosus FaNaC1, wild type (Malacoceros fuliginosus)
M. fuliginosus FaNaC1 = assay: Two-electrode voltage clamp of oocytes expressing M. fuliginosus FaNaC1; type: cell-based, Malacoceros fuliginosus; conditions: for peptide potency/activity compared to FMRFa (in words): Fig. 2 A
Text: (§1) A. kurodai FaNaC (NCBI GenBank: AB206707.1) and M. fuliginosus FaNaC1 (NCBI GenBank: ON156825.1) cDNAs in tailored pSP64 plasmid vectors including Xenopus laevis UTRs and poly(A) sequences have been described at length previously ([9],[16]). A. kurodai FaNaC F188Y, F188tag (amber stop codon), F453Y, and F453tag mutants were generated by site-directed mutagenesis as detailed in ([17]) with custom primers (Merck) and PCR with Phusion High-Fidelity DNA polymerase (Thermo Fisher). All coding sequences were confirmed by Sanger sequencing (Genewiz). Plasmid DNA was linearized by digesting with EcoRI (Thermo Fisher) and purified with the DNA Clean & Concentrator Kit (Zymo). mRNA was then transcribed using the mMESSAGE mMACHINE SP6 Transcription Kit (Thermo Fisher) and purified with the RNeasy Mini Kit (Qiagen).
(§2) X. laevis frog oocytes were shipped from Ecocyte Bioscience, Germany, and stored at 18°C in 50% Leibovitz’s L-15 medium (Gibco) supplemented with additional 0.25 mg/mL gentamicin, 1 mM L-glutamine, and 15 mM HEPES, pH 7.6.
(§3) For wild-type (WT) and conventional mutant channels, oocytes were injected with 40 nL of 120 ng/μL FaNaC mRNA via glass micropipettes backfilled with mineral oil, using a Nanoliter2010 injector (World Precision Instruments). For the expression of noncanonical mutant channels, aminoacylated tRNA was first resuspended in 2 μL of water and deprotected by 5 min in UV light via a fan-cooled coil of 365-nm realUV LED strip lights (Waveform Lighting). Deprotected aminoacylated tRNA was then mixed 2:1 with 700 ng/μL UAG mutant FaNaC mRNA, and 40 nL of this mix was injected into oocytes.
(§4) Two-electrode voltage clamp experiments were performed 24–36 h after injection. The oocyte was placed in an RC-3Z bath (Warner Instruments) and perfused continuously with ND96 solution (NaCl 96 mM, KCl 2 mM, CaCl2 1.8 mM, MgCl2 1 mM, HEPES 5 mM, pH 7.5 with NaOH). In experiments without Ca^2+, CaCl2 was replaced with BaCl2, and oocytes were injected with 40 nL of water or 25 mM EGTA 10–45 min before recording. In experiments probing increased Ca^2+ concentrations, extracellular solutions contained NaCl 140 mM, HEPES 10 mM, CaCl2 1 mM, pH 7.5 with NaOH; or NMDG-Cl 126.5 mM, HEPES 10 mM, CaCl2 10 mM, pH 7.5 with NaOH (leaving a small amount of Na^+ in the final solution), based on previous work ([21]). ND96 (or the latter solutions) alone or containing peptides was rapidly exchanged via a VCS-8 pinch-valve control perfusion system (Warner Instruments). […] Oocytes were clamped at −80 mV for all experiments with an Oocyte Clamp OC-725D amplifier (Warner Instruments) and Axon Digidata 1550B digitizer ([…]). Data were recorded at 1000 Hz and filtered at 100–200 Hz. 50 Hz noise was eliminated with a Hum Bug (Digitimer). In measuring reversal potentials in normal and high Ca^2+ solutions, 150 ms voltage ramps from −80 mV to 80 mV were applied continuously, before and during FMRFa application. The resulting “current ramp” in the absence of FMRFa was subtracted from that during peak FMRFa-gated current to plot the FMRFa-induced current-voltage relationship.
(§5) Current amplitude was measured in Clampfit 11.1 (Molecular Devices), and subsequent data analyses were performed in Prism v9 (GraphPad Software). For peptide concentration-response data, peak current amplitude was normalized to maximum, plotted against peptide concentration, and fitted with four-parameter nonlinear regression (Prism v9) for each oocyte. These were averaged to give the reported means ± SE in the main text. For display in figures, a single fit to the average normalized responses (±SE) is shown. […] Therefore, in most M. fuliginosus/LMRFa experiments only, just two LMRFa applications were used: one test concentration and one 10 μM for normalization. This yielded n = 3 oocytes for responses to different concentrations, against which a single curve was fitted and half-maximal effective concentration (EC50) was calculated. […]

A. kurodai FaNaC = assay: Two-electrode voltage clamp of oocytes expressing A. kurodai FaNaC; type: cell-based, Aplysia kurodai; conditions: for peptide potency/activity compared to FMRFa (in words): Fig. 2 A
Text: as §1, §2, §3, §4, §5

clade 1 FaNaCs = conditions: cited from earlier work; for sensitivity to native peptides (in words): extant clade 1 FaNaCs ref 9,27
[2] = tested on: A. kurodai FaNaC F453hPhe; assay: Two-electrode voltage clamp, nonsense suppression mutant F453hPhe; type: cell-based, Aplysia kurodai
Text: as §1
(§6) Noncanonical amino acids were incorporated into positions F188 and F453 of A. kurodai FaNaC via a nonsense suppression approach using an amber stop codon (TAG/UAG) and modified Tetrahymena thermophila Gln73 tRNA (THG73) ([19],[20]). […]
(§7) Two-electrode voltage clamp experiments were performed 24–36 h after injection. […] Data were recorded at 1000 Hz and filtered at 100–200 Hz. […]
(§8) Current amplitude was measured in Clampfit 11.1 (Molecular Devices), and subsequent data analyses were performed in Prism v9 (GraphPad Software). […]

A. kurodai FaNaC F188Y = assay: Two-electrode voltage clamp, conventional mutant F188Y; type: cell-based, Aplysia kurodai
Text: as §1, with “(Qiagen). […]” for “(Qiagen).”
as §7
(§9) Current amplitude was measured in Clampfit 11.1 (Molecular Devices), and subsequent data analyses were performed in Prism v9 (GraphPad Software). […] This yielded n = 3 oocytes for responses to different concentrations, against which a single curve was fitted and half-maximal effective concentration (EC50) was calculated. […]

[3] = tested on: A. kurodai FaNaC F188hPhe; assay: Two-electrode voltage clamp, nonsense suppression mutant F188hPhe; type: cell-based, Aplysia kurodai; conditions: concentrations up to 100 μM
Text: as §1, §6, §7, §8

clade 2 FaNaCs = conditions: extant clade 2 FaNaCs ref 9,23,27; cited from earlier work
Helix aspersa FaNaC = tested on: Helix aspersa FaNaC; set-up: method as in PMID 9343851; conditions: stated as shared by A. kurodai FaNaC and H. aspersa FaNaC ref 27; cited from earlier work
[4] = tested on: M. fuliginosus FaNaC1 F129 A/L/Q mutants; set-up: method as in PMID 38337033; conditions: conventional F129 A/L/Q mutants ref 15; cited from earlier work
A. kurodai FaNaC F453Y = assay: Two-electrode voltage clamp, conventional mutant F453Y; type: cell-based, Aplysia kurodai
Text: as §1, with “(Qiagen). […]” for “(Qiagen).”
as §7, §9

A. kurodai FaNaC F453Cha = assay: Two-electrode voltage clamp, nonsense suppression mutant F453Cha; type: cell-based, Aplysia kurodai
Text: as §1, §6, §7, §8

[5] = tested on: M. fuliginosus FaNaC1 position α3-F129 UAG mutant; assay: Two-electrode voltage clamp, nonsense suppression at F129 (UAG mutant mRNA and phenylalaninylated tRNA); type: cell-based, Malacoceros fuliginosus; conditions: UAG mutant mRNA and phenylalaninylated tRNA (not shown)
A. kurodai FaNaC F188Cha = assay: Two-electrode voltage clamp, nonsense suppression mutant F188Cha; type: cell-based, Aplysia kurodai; conditions: concentrations up to 100 μM
Text: as §1, §6, §7, §8

A. kurodai FaNaC F453Phe = assay: Two-electrode voltage clamp, nonsense suppression mutant F453Phe; type: cell-based, Aplysia kurodai
Text: as §1, §6, §7, §8

A. kurodai FaNaC F188Phe = assay: Two-electrode voltage clamp, nonsense suppression mutant F188Phe; type: cell-based, Aplysia kurodai
Text: as §1, §6, §7, §8

[6] = target: Malacoceros fuliginosus FaNaC1, wild type (Malacoceros fuliginosus); remark: listed apart in the source
[7] = target: Aplysia kurodai FMRFa-gated sodium channel (FaNaC), wild type (Aplysia kurodai)
[8] = X. laevis oocytes, -80 mV, mean ± SE

With (F3-Phe)MRFa (peptide) the EC50 of current activation, two-electrode voltage clamp, X. laevis oocytes [1] was 0.011 µM.

In the case of “AMRFa: synthetic FMRFa analog, F1 replaced with smaller hydrophobic side chain (A) (AMRF-NH2)”, the “peptide potency/activity compared to FMRFa (in words)” value (M. fuliginosus FaNaC1; X. laevis oocytes) is reported as “similarly to FMRFa” and the “peptide potency/activity compared to FMRFa (in words)” value (A. kurodai FaNaC; X. laevis oocytes) is reported as “activated no current”.

In the case of “Ac-FMRFa: FMRFa with N-terminal acetylation”, the “peptide potency/activity compared to FMRFa (in words)” value (M. fuliginosus FaNaC1; X. laevis oocytes) is reported as “increased potency” and the “peptide potency/activity compared to FMRFa (in words)” value (A. kurodai FaNaC; X. laevis oocytes) is reported as “little effect”.

In the case of “FKRFa: FMRFa analog, M2 replaced with lysine (FKRF-NH2)”, the “peptide potency/activity compared to FMRFa (in words)” value (M. fuliginosus FaNaC1; X. laevis oocytes) is reported as “no significant effect on potency” and the “peptide potency/activity compared to FMRFa (in words)” value (A. kurodai FaNaC; X. laevis oocytes) is reported as “no activity”.

For “FMKFa: FMRFa analog, R3 replaced with lysine; also a native peptide (FMKF-NH2)”, the “sensitivity to native peptides (in words)” value (clade 1 FaNaCs) is listed as “sensitive” and the “activation by peptide (in words)” value (clade 1 FaNaCs; various mollusk FaNaCs ref 7,9) is listed as “activated”.

For “FMQFa: FMRFa analog, R3 replaced with glutamine (FMQF-NH2)”, the “currents at 100 μM peptide” value (A. kurodai FaNaC; 100 μM) was “no currents” and the “peptide potency/activity compared to FMRFa (in words)” value (A. kurodai FaNaC; X. laevis oocytes) was “total reduction in potency”.

With “FMRAa: FMRFa analog, F4 replaced with alanine (FMRA-NH2)” the “peptide potency/activity compared to FMRFa (in words)” value (M. fuliginosus FaNaC1; X. laevis oocytes) was “abolished peptide potency completely”.

With “FMRF-OMe: FMRF with C-terminal O-methylester” the “peptide potency/activity compared to FMRFa (in words)” value (M. fuliginosus FaNaC1; X. laevis oocytes) was “drastically reduced activation”.

In the case of “FMRVa: FMRFa analog, F4 replaced with valine (FMRV-NH2)”, the “peptide potency/activity compared to FMRFa (in words)” value (M. fuliginosus FaNaC1; X. laevis oocytes) is reported as “did not significantly affect peptide potency”.

With “FVRFa: FMRFa analog, M2 replaced with valine (FVRF-NH2)” the “peptide potency/activity compared to FMRFa (in words)” value (M. fuliginosus FaNaC1; X. laevis oocytes) was “no significant effect on potency” and the “peptide potency/activity compared to FMRFa (in words)” value (A. kurodai FaNaC; X. laevis oocytes) was “significantly less potent than FMRFa”.

For H-Phe-Met-Arg-Phe-NH2 [FMRFa], the “FMRFa sensitivity (in words)” value [2] was “relatively little effect on FMRFa sensitivity”, the “FMRFa activation (in words)” value (A. kurodai FaNaC F188Y) was “activated by FMRFa at micromolar concentrations” and the “response to FMRFa (in words)” value [3] was “little or no response”. For the same molecule, the “binding of native peptides (in words)” value (clade 2 FaNaCs) was “bind”, the EC50 (Helix aspersa FaNaC) was 3 to 5 µM and the “sensitivity to FMRFa (in words)” value [4] was “reduced sensitivity to FMRFa”. The “FMRFa sensitivity (in words)” value (A. kurodai FaNaC F453Y) was “abolished FMRFa sensitivity”, the EC50 (M. fuliginosus FaNaC1; [8]) was 0.35 ± 0.06 µM and the “FMRFa sensitivity (in words)” value (A. kurodai FaNaC F453Cha) was “relatively little effect on FMRFa sensitivity”. For the same molecule, the “FMRFa-gated currents (in words)” value [5] was “no FMRFa-gated currents”, the “response to FMRFa (in words)” value (A. kurodai FaNaC F188Cha) was “little or no response” and the EC50 (A. kurodai FaNaC; [8]) was 5.48 µM and 5.5 µM. The “FMRFa potency compared to regular WT (in words)” value (A. kurodai FaNaC F453Phe) was “decreased FMRFa potency”, the “FMRFa activation/potency (in words)” value (A. kurodai FaNaC F188Phe) was “decreased FMRFa potency; also recorded: activated by FMRFa at micromolar concentrations” and the “sensitivity to native peptides (in words)” value (clade 1 FaNaCs) was “sensitive”.

For “LMRFa: synthetic FMRFa analog, F1 replaced with smaller hydrophobic side chain (L) (LMRF-NH2)”, the “deactivation after peptide application” value (M. fuliginosus FaNaC1) was “especially slow”, the “peptide potency/activity compared to FMRFa (in words)” value (M. fuliginosus FaNaC1; X. laevis oocytes) was “similarly to FMRFa” and the “peptide potency/activity compared to FMRFa (in words)” value (A. kurodai FaNaC; X. laevis oocytes) was “activated no current”.

In the case of “SGFMRFa: FMRFa with N-terminal serine-glycine insertion (SGFMRF-NH2)”, the “peptide potency/activity compared to FMRFa (in words)” value (M. fuliginosus FaNaC1; X. laevis oocytes) is reported as “no effect” and the “peptide potency/activity compared to FMRFa (in words)” value (A. kurodai FaNaC; X. laevis oocytes) is reported as “abolished activity”.

B1: H-Phe-Met-Arg-Phe-NH2 (FMRFamide) (peptide)
peptide: H-FMRF-NH2
In the case of B1, the EC50 of current activation, two-electrode voltage clamp, X. laevis oocytes [6] is reported as 0.35 µM and the EC50 of current activation, two-electrode voltage clamp, X. laevis oocytes [7] is reported as 5.48 µM.
